Experiment: Human HepG2 cell viability assay in 384 well format
Type: toxicity, cell-based
Design: dose 125 nL, time 70.5 hour; cytotoxicity at 70.5 h: concentration not given beside the values
Conditions: HepG2 cells, read-out: Inhibition

Compound	cytotoxicity at 70.5 h
Cc1nsc(NC(=O)N2CCCCC2CCCO)n1 (stereo unspecified)	-1.47%
Cc1ncc(CNCC2CCC(C(N)=O)CC2)n1-c1ccccc1 (stereo unspecified)	11.9%
CC(=O)N1CCCC1c1nnc2n1CCCCC2 (stereo unspecified)	2.96%
CC1=Nc2c(c(=O)[nH]n2C2CCCC2)C(c2cccc(O)c2)S1 (stereo unspecified)	3.38%
CCN1CCC(Cn2ccc3c(OC)c(OC)ccc3c2=O)C1 (stereo unspecified)	-2.32%
O=C(NCC1CCOCC1)[C@H]1C[C@@H]2CCN(Cc3ccccc3)C[C@H]2O1	-7.17%
Cc1nn(C)cc1-c1cc(C(=O)NCC(C)(C)c2cccc(F)c2)n[nH]1	1.66%
[O-][S+](Cc1c(F)cccc1Cl)Cc1nnnn1C1CC1 (stereo unspecified)	-14.6%
O=C(NCC1CCCN(C(=O)NCCc2ccccc2)C1)c1ccco1 (stereo unspecified)	-0.863%
COCC1CN(Cc2ccc(F)cc2)Cc2nnn(CC3CC3)c21 (stereo unspecified)	0.526%
CN1CCN([C@@H]2CCN(C3CCOCC3)[C@H]2Cc2cnn(C)c2)CC1	-6.56%
Cn1nnc2c1CCN(Cc1nccs1)C2COCc1ccccc1 (stereo unspecified)	-2.36%
CC1CCN(Cc2ccccc2CNC(=O)C2CNC(=O)N2)CC1 (stereo unspecified)	-4.5%
COc1ccccc1OCCc1cc(C2CCNC2)n[nH]1 (stereo unspecified)	-6.36%
Cc1cc(C(=O)NCCn2nc3ccccn3c2=O)[nH]n1	-13.9%
O=C(CCc1ccccc1F)NS(=O)(=O)c1ccc2c(c1)OCCCO2	-3.8%
Cc1nn(C)c(N(C)C)c1CNC(C)COc1cccc(F)c1 (stereo unspecified)	23.8%
Cc1cc2c(N3CCC(N(C)CCc4cnn(C)c4)CC3)ncnc2s1	2.46%
O=C1[C@H]2CN(c3ncccn3)C[C@H]2CN1CC1CC1	-124%
c1cncc(CN2CCCC(Nc3ncnc4c3CCNCC4)C2)c1 (stereo unspecified)	-11.7%
CCCS(=O)(=O)N1CCN(Cc2ccco2)CC1	-7.67%
CC(=O)N1CC2(CCCN(Cc3ccc(Cl)cc3)C2)Cc2ccccc21 (stereo unspecified)	5.61%
CSCCC(C)NC(=O)c1cccc(-c2n[nH]c(C)n2)c1 (stereo unspecified)	-6.77%

Compound	cytotoxicity at 70.5 h
CC(=O)N1CCCC2(CN(Cc3ccccc3C(F)(F)F)CCO2)C1 (stereo unspecified)	-2.98%
COc1ccccc1OCCC(=O)N1CCCCC1c1nccs1 (stereo unspecified)	0.499%
Cc1cc(-c2nc(C3(NC(=O)OC(C)(C)C)CCC3)no2)on1	-5.47%
CNC(=O)CN1C(=O)CN(C(=O)COC)CCC(OC)c2ccccc21 (stereo unspecified)	15.1%
Cc1nn(C)c(C)c1C1CCCN1C(=O)c1cnc2onc(C)c2c1 (stereo unspecified)	-7.3%
Cc1nc(C2CCN(C(=O)c3cccnc3)CC2)c2sccn12	0.00673%
Cc1cnc(C)c(N2CCC(c3nccn3Cc3cscn3)CC2)n1	14.9%
Cc1n[nH]c(C)c1CCc1nc(C2CC2)n[nH]1	-6.37%
Cc1cccc(NC(=O)[C@@H]2CCCN2Cc2ccc(C#N)cc2F)n1	-0.253%
CCCNC(=O)C[S+]([O-])Cc1csc(C2CCCCC2)n1 (stereo unspecified)	-10.9%
CCC[C@@H]1CN(C(=O)c2cc(-c3cccs3)n(C)n2)C[C@H]1NS(C)(=O)=O	-4.08%
CCc1ccc(C2COCCN2C(=O)NCc2cccc(C#N)c2)o1 (stereo unspecified)	-9.17%
COc1cc(NC(=O)c2ccc(Cl)cc2F)c(C(=O)N(C)C)cc1OC	-11.5%
CC(Oc1ccc2c(c1)OCO2)C(=O)N1CCC(c2ncc[nH]2)CC1 (stereo unspecified)	-8.64%
O=C(N[C@@H]1CCC[C@@H](N2CCOCC2)[C@@H]1O)c1cc2ccccc2[nH]1	-5.17%
CNS(=O)(=O)CC(=O)NC(C)Cc1cccc(Cl)c1 (stereo unspecified)	-2.05%
c1ccc(OCCN2CCC(c3nnc(-c4cccnc4)o3)CC2)cc1	-2.58%
CN(C)c1ccc(CC2CCCN(c3cnccn3)C2)nn1 (stereo unspecified)	-6.12%
CCc1nc(C)sc1CN1CCc2[nH]nc(-c3ccc(F)c(F)c3)c2C1	-5.32%
Cc1cc(C(=O)NCCN2CCCC(C)C2)nn1C(C)(C)C (stereo unspecified)	-22.7%
O=C([C@H]1CN(Cc2nccs2)C[C@H]2OCC[C@@H]12)N1CCCCO1	-10.9%
COCC1COCCC12CCN(C(=O)CC1Cc3ccccc3C1)CC2 (stereo unspecified)	0.913%
Cc1cc(NC(N)=O)ccc1C(=O)N(C)C	4.17%

Compound	cytotoxicity at 70.5 h
Cc1ccc(Cl)c(NC(=O)c2cccc(CN3CC[C@H](O)C3)c2)c1	-5.5%
Cc1nc(N2CCN(C)CC2)ncc1C(=O)N1CCCCCC1	-1.12%
COc1ccc(F)c(CNC2CCCc3nc(N(C)C)ncc32)c1 (stereo unspecified)	-11.5%
COCCN1CCC2(CCN(c3ncccn3)CC2)C1=O	16.9%
Cn1cccc1C(=O)N1CCC2(CCCN(CC3CC3)C2=O)C1 (stereo unspecified)	-4.86%
Cc1ccc(F)c(C(=O)N2C[C@@H](C(=O)O)[C@H](c3ccccc3)C2)c1Cl	1.54%
Cc1ccc(CNC(=O)c2ccc(=O)n(C)n2)c(OCC2CC2)c1	-4.46%
Cc1cccc(-n2ncc3c2CCCC3NCc2cnn(C)c2C)c1C (stereo unspecified)	3.5%
O=S(=O)(c1cn[nH]c1)N1CCCC(O)(CN2CCOCC2)CC1 (stereo unspecified)	-3.34%
O=C(c1ccccn1)N1CCCC(c2ncncc2-c2ccncc2)C1 (stereo unspecified)	-9.39%
CN(C)c1ccc(NC(=O)c2ccnn2C)nc1	0.439%
CNC(C(=O)N1CCC(c2nccn2C(C)C)CC1)c1ccccc1 (stereo unspecified)	-8.05%
CCN(CC1CCCN(CCc2cccc(OC)c2)C1)C(=O)CO (stereo unspecified)	-0.648%
O=C(NC1CC1)[C@@H]1C[C@@H]2CCN(Cc3ccccc3)C[C@H]2O1	-9.32%
Clc1ccc(CN(CCN2CCOCC2)Cc2cccnc2)cc1Cl	-5.5%
COc1cccc(NC(=O)NCc2cnn(C)c2)c1	-7.74%
O=C(c1cnccn1)N1CCCC(Cc2cncc3ccccc23)C1 (stereo unspecified)	-6.77%
CC(C)(C)Oc1ccc(CN)c(C(F)(F)F)c1	6.84%
COc1ccc(OC2CCN(Cc3ccn(C)c(=O)c3)CC2)cc1	0.479%
O=C(c1ccccn1)N1CCC(Oc2ncccc2Cl)CC1	-2.05%
CNC(=O)[C@@H]1CN(C(=O)CCOC)C[C@H]1c1ccnc(N2CCCC2)n1	-4.83%
Cc1cncc(NC(=O)c2ccc(CN3CCC(CO)CC3)cc2)c1	-16.3%
Cc1cccc2c1NC(c1cnc(C3CCC3)s1)NC2=O (stereo unspecified)	-18.5%

Compound	cytotoxicity at 70.5 h
O=C(c1cnccn1)N1C[C@@H]2CCN(c3cnccn3)C[C@@H]2C1	-7.66%
CC(c1ccon1)N(C)C(=O)C1CCN(C2CCCCC2)CC1 (stereo unspecified)	-1.12%
Cc1ccc(OCCC(=O)NCCCN2CCCC2=O)c(C)c1	17.8%
CCc1nnc2ccc(N3CCN(S(=O)(=O)c4ccc(Cl)s4)CC3)nn12	-19%
CC(C(=O)Nc1ccc(Cl)cn1)n1ccc(C(F)(F)F)n1 (stereo unspecified)	1.33%
CCc1cc(C)nc(N2CCN(C(C)c3nc(C)no3)CC2)n1 (stereo unspecified)	-7.01%
Cn1cc(N2CCC(NC(=O)c3ccccc3F)C2=O)cn1 (stereo unspecified)	-1.23%
CCS(=O)(=O)N1CCc2c(COCCN(C)C)cncc2C1	2.79%
CCn1ccnc1CN1CCN(CC(O)CN2CCOCC2)CC1 (stereo unspecified)	-15.7%
Cc1ccc(OCC(O)CN(C)CC(=O)Nc2cc(C)on2)c(C)c1 (stereo unspecified)	10.1%
Cc1ccc(CN2CCC[C@@H]3CN(C(=O)c4ccco4)C[C@@H]32)s1	-11%
COc1ccccc1N1CCN(C(=O)CCn2ccnc2C)CC1(C)C	21.5%
CC(C)N1C(=O)C[C@H]2[C@@H]1CCN2C(=O)c1ccco1	24.5%
Clc1cnc(NCc2ccccc2N2CCOCC2)nc1	-14.4%
CN(Cc1ccc(-n2ccnc2)cc1)Cc1ncc[nH]1	-6.87%
c1ccc(CN2CCc3ncnc(-c4ccncc4)c3CC2)nc1	22.4%
Cc1noc(-c2ccc(-n3ncc(C(=O)O)c3C)nc2)n1	-5.29%
CCCc1cc(C(=O)N2CCC3(CCCNC3=O)C2)cs1 (stereo unspecified)	-0.581%
COC(CNC(=O)c1ccc[nH]1)c1cccc(Cl)c1 (stereo unspecified)	10.5%
Cc1nc(C)n(CC2CN(Cc3cccc(OC(C)C)c3)CCO2)n1 (stereo unspecified)	-10.6%
COc1cccc(C(=O)NC(CC(=O)O)c2cccs2)c1OC (stereo unspecified)	-9.47%
CS(=O)(=O)c1ccc(NC(=O)CSc2ccc3c(c2)CCC3)cn1	-14.4%
Cc1nn(-c2ccccc2)nc1C(=O)NCC(c1ccco1)N(C)C (stereo unspecified)	-15.6%

Compound	cytotoxicity at 70.5 h
COc1cc(Cl)c(C)cc1-n1nnc(C(=O)O)c1C	-2%
Cc1ccc(S(=O)(=O)N2CCC(Oc3ccccn3)CC2)c(C)c1	-19.6%
CN1CCO[C@@H]2CN(S(=O)(=O)c3cccnc3)C[C@@H]2C1	2.04%
CCn1c(C)nnc1SCCNC(=O)c1cnc(N(C)C)nc1C	-2.09%
Cc1nccc([C@H]2C[C@@H]3CCN(S(=O)(=O)N(C)C)C[C@H]3O2)n1	-10.6%
CCn1ccc(NC(=O)CCc2c(C)noc2C)n1	-7.45%
Cn1cncc1-c1nnc([C@H]2CCN(CC(C)(C)C)C2)o1	14%
CC(C)N(C)Cc1noc2c1CN(C(=O)c1cnccn1)CC2	-1.15%
CN(CC(=O)Nc1ccccc1C(=O)NC1CC1)Cc1ccccc1Cl	0.515%
O=C(Nc1ccccc1OC1CCOC1)c1cc[nH]n1 (stereo unspecified)	16.6%
CCC1CN(C)c2ccccc2CN1C(=O)c1c[nH]c(=O)cc1C (stereo unspecified)	-11.3%
NC(=O)C1CCCN(c2ccc(CNC(=O)c3cnsn3)cc2)C1 (stereo unspecified)	-7.99%
c1ccc(CN2CCNCC(Cc3cnccn3)C2)cc1 (stereo unspecified)	-1.06%
Cc1ccc(CN2C[C@@H]3CN(C(=O)c4cccn4C)C[C@@H]3C2)cc1	-3.66%
Cc1nnsc1C(=O)N1CCCCC1c1cc2nc(C)c(C)c(O)n2n1 (stereo unspecified)	-2.13%
COc1ccc(-c2cc(-c3nc(CN4CCN(C)CC4)no3)[nH]n2)cc1	-5.68%
COC1CCN(C(=O)Cc2csc(-c3ccccc3)n2)CC1	-5.23%
c1cnc(Nc2ccc(C3CCCCN3)cn2)cn1 (stereo unspecified)	-5.51%
CCN(Cc1cnn(C)c1)C(=O)c1cc2ccccc2c(=O)[nH]1	-7.09%

Reference: ChEMBL document CHEMBL3507680, “University of Dundee, Gates Library screen for HepG2 cell viability”
